“Also recorded” adds a separate entry of the source.
What was measured:
IHMGECs [1] = assay: Oil red O (ORO) staining of neutral lipid droplets in IHMGECs; assay type: cell-based, human
Method: Authenticated IHMGECs were grown and passaged in keratinocyte serum-free medium (KSFM) with 5 ng/mL epidermal growth factor (EGF) and 50 μg/mL bovine pituitary extract (BPE) (Thermo Fisher Scientific, Waltham, Mass.) under 21% O2 (normoxia) [Liu et al. (2010) Investigative ophthalmology & visual science 51:3993-4005; McDermott et al. (2018) Current eye research 43:1097-1101; Liu et al. (2013) Investigative ophthalmology & visual science 54:2541-2550]. Upon reaching 60% to 70% confluence, culture media were replaced by a 1:1 mixture of Dulbecco's modified Eagle's medium and Ham's F12 (DMEM/F12, Corning Life Sciences, Tewksbury, Mass.), supplemented with 10% fetal bovine serum (FBS, Atlanta Biologicals, Flowery Branch, Ga.) [Sullivan et al. (2014) Investigative ophthalmology & visual science 55:3866-3877; Liu et al. (2014) JAMA ophthalmology 132:226-228]. Cells were cultured for 4-10 days under 21% O2 (normoxic) or 1% O2 (hypoxic) conditions. […]
After four days of incubation, cells seeded on chamber slides (Corning, Rochester, N.Y.) were stained with 0.3% Oil red 0 (ORO, Fisher Biotec, Wembley, Wash., Australia) according to the published protocol in Liu et al. (2010) Investigative ophthalmology & visual science 51:3993-4005) and Liu et al. (2014) Toxicology 320:1-5. […] The size of the stained area was quantified using ImageJ [Deutsch et al. (2014) Anal Biochem 445:87-89]. […]

IHMGECs [2] = assay: HPTLC analysis of nonpolar lipids and phospholipids in IHMGEC lipid extracts; assay type: cell-based, human; details: Roxa, 4 days
Method: Authenticated IHMGECs were grown and passaged in keratinocyte serum-free medium (KSFM) with 5 ng/mL epidermal growth factor (EGF) and 50 μg/mL bovine pituitary extract (BPE) (Thermo Fisher Scientific, Waltham, Mass.) under 21% O2 (normoxia) [Liu et al. (2010) Investigative ophthalmology & visual science 51:3993-4005; McDermott et al. (2018) Current eye research 43:1097-1101; Liu et al. (2013) Investigative ophthalmology & visual science 54:2541-2550]. Upon reaching 60% to 70% confluence, culture media were replaced by a 1:1 mixture of Dulbecco's modified Eagle's medium and Ham's F12 (DMEM/F12, Corning Life Sciences, Tewksbury, Mass.), supplemented with 10% fetal bovine serum (FBS, Atlanta Biologicals, Flowery Branch, Ga.) [Sullivan et al. (2014) Investigative ophthalmology & visual science 55:3866-3877; Liu et al. (2014) JAMA ophthalmology 132:226-228]. Cells were cultured for 4-10 days under 21% O2 (normoxic) or 1% O2 (hypoxic) conditions. Culture plates of cells in the hypoxic condition were incubated inside hypoxia chambers filled with a premade 1% O2, 5% CO2 and 94% N2 gas mixture (Linde Gas North America, Hammond, Ind.), according to published protocols in Liu et al. (2019) The ocular surface 17(2):310-317 and Wright and Shay (2006) Nat Protoc 1:2088-2090. Following cell medium changes, the chambers were re-flushed with the gas mixture before returning to the incubator. Cells were cultured in the presence or absence of 50 μM Roxa (Selleck Chemical, Houston, Tex.) under normoxic or hypoxic conditions for 4 to 10 days. Cell culture experiments (n=3 wells/treatment) were repeated at least 3 times.
Cells seeded in 10-cm polystyrene-coated dishes (Corning, Falcon) were extracted with chloroform and methanol, and the lipid extractions were separated by high-performance thin-layer chromatography (HPTLC), as previously described in Liu et al. Toxicology 2014; 320:1-5, Liu and Ding (2014) Investigative ophthalmology & visual science 55:5596-5601, and Liu et al. (2015) Cornea 34:342-346. In brief, for nonpolar lipid analysis, the plate (Silica Gel 60, Merck, Darmstadt, Germany) was developed in hexane: diethyl ether: acetic acid (80:20:1.5, vol/vol/vol) alone. For phospholipids analysis, the plate was developed sequentially in chloroform:ethanol:water (60:30:5 vol/vol/vol) and then hexane:diethyl ether:acetic acid (80:20:1.5, vol/vol/vol) [Liu and Ding (2014) Investigative ophthalmology & visual science 55:5596-5601]. Bands were visualized according to published protocols [Ponec et al. (1988) Journal of lipid research 29:949-961], and the intensities of bands were quantified using ImageJ [Liu and Ding (2014) Investigative ophthalmology & visual science 55:5596-5601].
To examine whether 1% O2 exposure and/or Roxa administration stimulate the accumulation of neutral lipids within IHMGECs [Liu et al. (2019) Ocul Surf 17:310-317], IHMGECs were treated with Roxa ([…]) in either normoxic (21% O2) or hypoxic (1% O2) environments conditions for 4 days.

[3] = under either normoxic or hypoxic conditions, vs controls

Q: How did the “accumulation of neutral lipid droplets in IHMGECs (area of ORO staining)” value (IHMGECs [1]; Roxa alone, 21% O2, 4 days) turn out when Cc1nc(C(=O)NCC(=O)O)c(O)c2ccc(Oc3ccccc3)cc12 [Roxa, roxadustat] was run?
A: significantly increased; also recorded: duplicated the effect of a hypoxic environment

Q: And the “accumulation of neutral lipid droplets in IHMGECs (area of ORO staining), combination of Roxa and 1% O2” value (IHMGECs [1]; Roxa in 1% O2, 4 days)?
A: significantly increased; also recorded: further increased

Q: And the “amount of cholesterol esters in IHMGECs” value (IHMGECs [2])?
A: Neither Roxa nor 1% O2 had any effect

Q: What about the “amount of lysophosphatidylcholines in IHMGECs” value (IHMGECs [2]) of the same compound?
A: Neither Roxa nor 1% O2 had any effect

Q: And the “amount of phosphatidic acid in IHMGECs” value (IHMGECs [2])?
A: Neither Roxa nor 1% O2 had any effect

Q: And the “amount of phosphatidylcholine in IHMGECs” value (IHMGECs [2])?
A: Neither Roxa nor 1% O2 had any effect

Q: What about the “amount of phosphatidylethanolamine in IHMGECs” value (IHMGECs [2]) of the same compound?
A: Neither Roxa nor 1% O2 had any effect

Q: What about the “amount of phosphatidylinositol in IHMGECs” value (IHMGECs [2]) of the same compound?
A: Neither Roxa nor 1% O2 had any effect

Q: What about the “amount of wax esters in IHMGECs” value (IHMGECs [2]) of the same compound?
A: Neither Roxa nor 1% O2 had any effect

Q: What about the “expression of unidentified polar lipids in IHMGECs (HPTLC)” value (IHMGECs [2]) of the same compound?
A: appeared to enhance

Q: And the “levels of free fatty acids (FFAs) in IHMGECs (HPTLC)” value (IHMGECs [2]; [3])?
A: increased

Q: And the “levels of triglycerides in IHMGECs (HPTLC)” value (IHMGECs [2]; [3])?
A: increased
